We go through 20 compounds from patent US9873704B2, “Heterocyclic compounds and their uses” (Amgen Inc., priority 2009, dated 2018).

SMILES strings stand for the structures.

In one assay the target is T1, p110δ (Homo sapiens, UniProt O00329).
T1 sequence (O00329 1-1044): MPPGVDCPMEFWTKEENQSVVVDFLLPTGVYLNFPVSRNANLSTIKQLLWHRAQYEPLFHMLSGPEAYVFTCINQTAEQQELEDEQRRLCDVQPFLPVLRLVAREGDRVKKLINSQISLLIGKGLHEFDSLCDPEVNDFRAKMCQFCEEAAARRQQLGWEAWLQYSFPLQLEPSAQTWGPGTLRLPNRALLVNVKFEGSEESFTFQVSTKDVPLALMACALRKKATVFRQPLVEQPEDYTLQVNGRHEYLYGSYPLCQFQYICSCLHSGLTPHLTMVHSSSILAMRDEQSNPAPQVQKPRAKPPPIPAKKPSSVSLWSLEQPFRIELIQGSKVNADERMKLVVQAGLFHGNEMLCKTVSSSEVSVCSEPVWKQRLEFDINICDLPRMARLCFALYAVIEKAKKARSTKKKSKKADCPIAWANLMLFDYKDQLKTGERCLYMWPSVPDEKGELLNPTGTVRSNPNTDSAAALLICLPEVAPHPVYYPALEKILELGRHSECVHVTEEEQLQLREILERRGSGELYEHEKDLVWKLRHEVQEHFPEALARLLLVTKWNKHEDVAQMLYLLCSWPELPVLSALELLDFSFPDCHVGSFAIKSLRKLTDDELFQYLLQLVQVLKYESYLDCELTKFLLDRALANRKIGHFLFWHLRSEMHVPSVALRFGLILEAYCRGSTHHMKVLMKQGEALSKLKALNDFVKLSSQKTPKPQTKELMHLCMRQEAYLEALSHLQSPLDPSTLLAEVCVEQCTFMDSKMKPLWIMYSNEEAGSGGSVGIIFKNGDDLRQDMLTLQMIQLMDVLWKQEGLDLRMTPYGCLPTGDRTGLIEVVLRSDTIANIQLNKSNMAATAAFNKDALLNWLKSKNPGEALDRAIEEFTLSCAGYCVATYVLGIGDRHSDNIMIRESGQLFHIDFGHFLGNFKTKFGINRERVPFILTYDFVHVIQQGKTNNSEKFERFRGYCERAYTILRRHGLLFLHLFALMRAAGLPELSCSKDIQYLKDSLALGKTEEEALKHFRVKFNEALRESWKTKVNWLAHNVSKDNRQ
Test: not given
Conditions: cited from earlier work.
For the compound `Cc1ccccc1-n1c(Cn2cnc3c(N)ncnc32)nc2cccc(C)c2c1=O` [IC87114], the “inhibits p110δ” value is on record as “high nanomolar range (triple digit)”.

For another assay, the system named is protein kinases.
Test: not given
Conditions: cited from earlier work.
Turning to `Cc1ccccc1-n1c(Cn2cnc3c(N)ncnc32)nc2cccc(C)c2c1=O` [IC87114], the “activity against any protein kinases tested” value is recorded as “no activity”.

The target of the next assay is T2, PI3Kδ (Homo sapiens, UniProt O00329).
T2 construct: Full length p110 subunits of PI3k α, β and δ, N-terminally labeled with polyHis tag; polyHis (N); made in house; host or cells: Sf9 insect cells (baculovirus)
T2 sequence (P27986 whole entry partner, one chain of several): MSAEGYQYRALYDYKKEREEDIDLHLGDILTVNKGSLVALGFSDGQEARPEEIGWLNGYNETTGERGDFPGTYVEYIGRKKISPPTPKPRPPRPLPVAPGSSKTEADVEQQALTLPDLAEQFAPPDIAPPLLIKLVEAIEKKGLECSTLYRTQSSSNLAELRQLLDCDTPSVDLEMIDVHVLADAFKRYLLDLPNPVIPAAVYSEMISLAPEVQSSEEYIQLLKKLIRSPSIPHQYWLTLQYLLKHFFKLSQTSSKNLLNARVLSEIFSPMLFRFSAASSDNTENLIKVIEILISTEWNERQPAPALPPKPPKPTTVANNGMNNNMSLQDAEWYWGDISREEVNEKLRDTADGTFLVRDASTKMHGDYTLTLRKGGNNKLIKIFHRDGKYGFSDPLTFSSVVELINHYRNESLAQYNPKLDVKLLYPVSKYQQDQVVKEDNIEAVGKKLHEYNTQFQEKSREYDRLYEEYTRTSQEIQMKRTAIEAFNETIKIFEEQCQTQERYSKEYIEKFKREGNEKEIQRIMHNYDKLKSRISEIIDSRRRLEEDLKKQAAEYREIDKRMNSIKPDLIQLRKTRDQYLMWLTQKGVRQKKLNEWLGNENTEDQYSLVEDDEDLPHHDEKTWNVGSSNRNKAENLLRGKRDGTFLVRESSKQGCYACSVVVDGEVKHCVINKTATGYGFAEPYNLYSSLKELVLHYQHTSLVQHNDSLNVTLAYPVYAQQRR
Nature of the assay: PI3Kδ Alphascreen assay. Type of assay: biochemical.
Settings: not given
On the procedure:
Full length p110 subunits of PI3k α, β and δ, N-terminally labeled with polyHis tag, were coexpressed with p85 with Baculo virus expression vectors in sf9 insect cells. P110/p85 heterodimers were purified by sequential Ni-NTA, Q-HP, Superdex-100 chromatography. Purified α, β and δ isozymes were stored at −20° C. in 20 mM Tris, pH 8, 0.2M NaCl, 50% glycerol, 5 mM DTT, 2 mM Na cholate. […] The γ isozyme was purified by sequential Ni-NTA, Superdex-200, Q-HP chromatography. The γ isozyme was stored frozen at −80° C. in NaH2PO4, pH 8, 0.2M NaCl, 1% ethylene glycol, 2 mM β-mercaptoethanol.
A PI3K Alphascreen® assay (PerkinElmer, Waltham, Mass.) was used to measure the activity of a panel of four phosphoinositide 3-kinases: PI3Kα, PI3Kβ, PI3Kγ, and PI3Kδ. Enzyme reaction buffer was prepared using sterile water (Baxter, Deerfield, Ill.) and 50 mM Tris HCl pH 7, 14 mM MgCl2, 2 mM sodium cholate, and 100 mM NaCl. 2 mM DTT was added fresh the day of the experiment. The Alphascreen buffer was made using sterile water and 10 mM Tris HCl pH 7.5, 150 mM NaCl, 0.10% Tween 20, and 30 mM EDTA. 1 mM DTT was added fresh the day of the experiment. Compound source plates used for this assay were 384-well Greiner clear polypropylene plates containing test compounds at 5 mM and diluted 1:2 over 22 concentrations. Columns 23 and 24 contained only DMSO as these wells comprised the positive and negative controls, respectively. Source plates were replicated by transferring 0.5 uL per well into 384-well Optiplates (PerkinElmer, Waltham, Mass.).
Each PI3K isoform was diluted in enzyme reaction buffer to 2× working stocks. […] PI(4,5)P2 (Echelon Biosciences, Salt Lake City, Utah) was diluted to 10 μM and ATP was diluted to 20 μM. This 2× stock was used in the assays for PI3Kα and PI3Kβ. For assay of PI3Kγ and PI3Kδ, PI(4,5)P2 was diluted to 10 μM and ATP was diluted to 8 μM to prepare a similar 2× working stock. Alphascreen reaction solutions were made using beads from the anti-GST Alphascreen kit (PerkinElmer, Waltham, Mass.). Two 4× working stocks of the Alphascreen reagents were made in Alphascreen reaction buffer. In one stock, biotinylated-IP4 (Echelon Biosciences, Salt Lake City, Utah) was diluted to 40 nM and streptavidin-donor beads were diluted to 80 μg/mL. In the second stock, PIP3-binding protein (Echelon Biosciences, Salt Lake City, Utah) was diluted to 40 nM and anti-GST-acceptor beads were diluted to 80 μg/mL.
10 μL/well of the appropriate substrate 2× stock (containing 20 μM ATP for the PI3Kα and β assays and containing 8 μM ATP for the PI3Kγ and δ assays) was then added to Columns 1-24 of all plates. Plates were then incubated at room temperature for 20 minutes. In the dark, 10 μL/well of the donor bead solution was added to columns 1-24 of the plates to quench the enzyme reaction. The plates were incubated at room temperature for 30 minutes. Still in the dark, 10 μL/well of the acceptor bead solution was added to columns 1-24 of the plates. The plates were then incubated in the dark for 1.5 hours. The plates were read on an Envision multimode Plate Reader (PerkinElmer, Waltham, Mass.) using a 680 nm excitation filter and a 520-620 nm emission filter.
As for `COc1c(-c2ccccc2)c([C@@H](C)Nc2ncnc(N)c2C#N)nc2ccc(F)cc12` [(R)-4-amino-6-(1-(6-fluoro-4-methoxy-3-phenylquinolin-2-yl)ethylamino)pyrimidine-5-carbonitrile], the Ki – broadly, a dissociation constant, usually derived from enzyme kinetics or from competition with a known ligand – worked out at 271 nM.
Regarding `C[C@@H](Nc1ncnc2[nH]cnc12)c1nc2ccc(F)cc2cc1-c1ccccn1` [(R)—N-(1-(6-fluoro-3-(pyridin-2-yl)quinolin-2-yl)ethyl)-9H-purin-6-amine], the affinity, expressed as Ki, was 217 nM. This Ki and that of the compound before are within 1.5-fold of each other.
As to `C[C@@H](Nc1ncnc2[nH]cnc12)c1nc2ccc(F)cc2c(S(C)(=O)=O)c1-c1ccccc1` [(R)—N-(1-(6-fluoro-4-(methylsulfonyl)-3-phenylquinolin-2-yl)ethyl)-9H-purin-6-amine], the inhibitory constant (Ki) was found to be 410 nM.
`C[C@H](Nc1ncnc(N)c1C#N)c1nc2ccc(F)cc2c(C(=O)NCCO)c1-c1ccccn1` [(S)-2-(1-(6-Amino-5-cyanopyrimidin-4-ylamino)ethyl)-6-fluoro-N-(2-hydroxyethyl)-3-(pyridin-2-yl)quinoline-4-carboxamide] had a Ki of 7.57 nM.
Compound `C[C@H](Nc1ncnc(N)c1C#N)c1nc2ccc(F)cc2c(C(=O)NC2CC2)c1-c1ccccn1` [(S)-2-(1-(6-Amino-5-cyanopyrimidin-4-ylamino)ethyl)-N-cyclopropyl-6-fluoro-3-(pyridin-2-yl)quinoline-4-carboxamide] displayed a Ki of 1.64 nM.
On the same count and under the same terms, the result for `COc1c(-c2cc(F)cc(F)c2)c([C@H](C)Nc2ncnc(N)c2C#N)nc2ccc(F)cc12` [(S)-4-Amino-6-(1-(3-(3,5-difluorophenyl)-6-fluoro-4-methoxyquinolin-2-yl)-ethylamino)pyrimidine-5-carbonitrile] reads 68.4 nM.
`C[C@H](Nc1ncnc(N)c1C#N)c1nc2cccc(F)c2c(S(C)(=O)=O)c1-c1ccccc1` [(S)-4-Amino-6-(1-(5-fluoro-4-(methylsulfonyl)-3-phenylquinolin-2-yl)ethylamino)pyrimidine-5-carbonitrile] showed a Ki of 1.3 nM.
On to `C[C@H](Nc1ncnc(N)c1C#N)c1nc2ccc(F)cc2cc1-c1cccc(S(C)(=O)=O)n1` [(S)-4-Amino-6-(1-(6-fluoro-3-(6-(methylsulfonyl)pyridin-2-yl)quinolin-2-yl)ethylamino)pyrimidine-5-carbonitrile], for which affinity was put at a Ki of 130 nM.
`C[C@@H](c1nc2ccc(F)cc2cc1-c1ccccn1)n1nc(C#N)c2c(N)ncnc21` [(S)-4-amino-1-(1-(6-fluoro-3-(pyridin-2-yl)quinolin-2-yl)ethyl)-1H-pyrazolo[3,4-d]pyrimidine-3-carbonitrile] displayed a Ki of 7.67 nM.
As for `COc1c(-c2ccccc2)c([C@H](C)Nc2ncnc(N)c2C#N)nc2ccc(F)cc12` [(S)-4-amino-6-(1-(6-fluoro-4-methoxy-3-phenylquinolin-2-yl)ethylamino)pyrimidine-5-carbonitrile], affinity was put at a Ki of 1.18 nM.
Regarding `C[C@H](Nc1ncnc2[nH]cnc12)c1nc2ccc(F)cc2cc1-c1ccccn1` [(S)—N-(1-(6-Fluoro-3-(pyridin-2-yl)quinolin-2-yl)ethyl)-9H-purin-6-amine], the Ki turned out to be 4.15 nM.
`C[C@H](Nc1ncnc2[nH]cnc12)c1nc2ccc(F)cc2c(S(C)(=O)=O)c1-c1ccccc1` [(S)—N-(1-(6-fluoro-4-(methylsulfonyl)-3-phenylquinolin-2-yl)ethyl)-9H-purin-6-amine] returned a Ki of 1.12 nM. Compared with the last compound, the Ki is about 3.7-fold lower.
Turning to `COC(=O)c1c(-c2ccccc2)c(C(C)Nc2ncnc(N)c2C#N)nc2ccc(F)cc12` (centres unmarked) [Methyl 2-(1-(6-amino-5-cyanopyrimidin-4-ylamino)ethyl)-6-fluoro-3-phenylquinoline-4-carboxylate], the Ki turned out to be 1.56 nM.
Still for that read-out and setting: for `CC(Nc1cc(N)ncn1)c1nc2ccc(F)cc2cc1-c1ccccn1` (centres unmarked) [N4-(1-(6-Fluoro-3-(pyridin-2-yl)quinolin-2-yl)ethyl)pyrimidine-4,6-diamine] the value was 3730 nM.
`CC(Nc1ncnc2[nH]cnc12)c1nc2cccc(F)c2c(S(C)(=O)=O)c1-c1ccccc1` (centres unmarked) [N-(1-(5-Fluoro-4-(methylsulfonyl)-3-phenylquinolin-2-yl)ethyl)-9H-purin-6-amine] registered a Ki of 2.24 nM.
On the same count and under the same terms, for `CC(Nc1ccncn1)c1nc2ccc(F)cc2cc1-c1ccccn1` (centres unmarked) [N-(1-(6-Fluoro-3-(pyridin-2-yl)quinolin-2-yl)ethyl)pyrimidin-4-amine] the value was 11600 nM; for `CC(Nc1ncnc2[nH]cnc12)c1nc2ccc(F)cc2c(S(C)(=O)=O)c1-c1ccccc1` (centres unmarked) [N-(1-(6-Fluoro-4-(methylsulfonyl)-3-phenylquinolin-2-yl)ethyl)-9H-purin-6-amine], 2.34 nM.
`C[C@@H](Nc1ccnc(N)n1)c1nc2ccc(F)cc2cc1-c1ccccn1` [N~4~-((1R)-1-(6-fluoro-3-(2-pyridinyl)-2-quinolinyl)ethyl)-2,4-pyrimidinediamine] registered a Ki of 5520 nM. This Ki is about 2400-fold higher than that of the compound before.

For a further assay, the system named is model of systemic lupus erythematosis.
Test: not given
Conditions: in vivo; cited from earlier work.
As to `O=C1NC(=O)/C(=C\c2ccc3nccnc3c2)S1` [AS 605240], the “onset of disease in a model of systemic lupus erythematosis” value is “delay onset of disease”.

A further assay concerns mouse model of rheumatoid arthritis.
Test: not given
Conditions: in vivo; cited from earlier work.
In the case of `O=C1NC(=O)/C(=C\c2ccc3nccnc3c2)S1` [AS 605240], the “efficacy in a mouse model of rheumatoid arthritis” value was “efficacious”.

The test system of another assay is murine model of asthma.
Test: not given
Conditions: ovalbumin-induced airway inflammation; cited from earlier work.
As to `Cc1ccccc1-n1c(Cn2cnc3c(N)ncnc32)nc2cccc(C)c2c1=O` [IC87114], the “inflammation and disease in a murine model of asthma” value is “significantly ameliorate inflammation and disease”.
